The target in experiment [1] is T1, serotonin (5-HT) transporter (Rattus norvegicus, UniProt P31652).
T1 construct: from tissue; host or cells: rat frontal cortex
The note with it: earlier tropanes (U.S. Ser. No. 08/589,820), 5-HT vs dopamine transporter; cited from earlier work.

Experiment [2] deals with T1, serotonin (5-HT) transporter. Kind of experiment: displacement of [3H]paroxetine binding to 5-HT transporter. The note with it: for 5-HT/DA potency ratio: selectivity for 5-HT over DA transporter; for 5-HT/NE potency ratio: selectivity for 5-HT over NE transporter. A general note: Displacement assays read how much labelled ligand stays bound in the presence of the test substance.

The target in experiment [3] is T2, dopamine (DA) transporter (Rattus norvegicus, UniProt P23977).
T2 construct: was used to label dopamine transporters in rat striatal membranes; from tissue; host or cells: rat striatum (membranes)
T2 sequence (P23977 whole entry): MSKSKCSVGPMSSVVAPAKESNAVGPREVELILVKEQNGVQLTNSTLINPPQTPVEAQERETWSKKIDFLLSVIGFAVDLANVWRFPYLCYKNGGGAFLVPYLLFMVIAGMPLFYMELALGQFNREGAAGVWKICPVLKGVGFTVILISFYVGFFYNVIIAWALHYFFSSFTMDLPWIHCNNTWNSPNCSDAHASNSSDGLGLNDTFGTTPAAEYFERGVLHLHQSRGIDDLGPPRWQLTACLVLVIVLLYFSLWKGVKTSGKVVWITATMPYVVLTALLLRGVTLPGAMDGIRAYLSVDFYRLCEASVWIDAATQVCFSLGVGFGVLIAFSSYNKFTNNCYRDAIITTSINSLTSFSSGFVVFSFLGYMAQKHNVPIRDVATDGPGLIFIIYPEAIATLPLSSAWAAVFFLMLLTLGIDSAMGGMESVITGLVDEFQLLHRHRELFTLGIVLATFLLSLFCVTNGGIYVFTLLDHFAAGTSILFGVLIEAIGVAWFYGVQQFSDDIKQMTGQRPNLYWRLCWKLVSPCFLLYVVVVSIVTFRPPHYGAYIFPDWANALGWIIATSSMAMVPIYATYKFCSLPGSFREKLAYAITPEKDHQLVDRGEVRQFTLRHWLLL
The experiment is described as follows: displacement of [125I]RTI-55 binding to dopamine transporter. The note with it: [125I]RTI-55, rat striatal membranes.

Experiment [4] has as its target T3, norepinephrine (NE) transporter (Rattus norvegicus, UniProt Q63380).
T3 construct: rat brain membranes; from tissue
The experiment is described as follows: displacement of [3H]nisoxetine binding to NE transporter. The note with it: rat brain membranes.

The mark [5] stands for this setting: [3H]paroxetine, rat frontal cortex.

Read-outs that look alike come from different tables or passages of the source.

This is an account of results in patent US6013242A, “Tropane derivatives with selective binding to the serotonin reuptake transporters for treatment of mental illness and as intermediates in the formation of imaging diagnostic agents for depression” (Wake Forest University, priority 1998, dated 2000).

T1 sequence (P31652 whole entry): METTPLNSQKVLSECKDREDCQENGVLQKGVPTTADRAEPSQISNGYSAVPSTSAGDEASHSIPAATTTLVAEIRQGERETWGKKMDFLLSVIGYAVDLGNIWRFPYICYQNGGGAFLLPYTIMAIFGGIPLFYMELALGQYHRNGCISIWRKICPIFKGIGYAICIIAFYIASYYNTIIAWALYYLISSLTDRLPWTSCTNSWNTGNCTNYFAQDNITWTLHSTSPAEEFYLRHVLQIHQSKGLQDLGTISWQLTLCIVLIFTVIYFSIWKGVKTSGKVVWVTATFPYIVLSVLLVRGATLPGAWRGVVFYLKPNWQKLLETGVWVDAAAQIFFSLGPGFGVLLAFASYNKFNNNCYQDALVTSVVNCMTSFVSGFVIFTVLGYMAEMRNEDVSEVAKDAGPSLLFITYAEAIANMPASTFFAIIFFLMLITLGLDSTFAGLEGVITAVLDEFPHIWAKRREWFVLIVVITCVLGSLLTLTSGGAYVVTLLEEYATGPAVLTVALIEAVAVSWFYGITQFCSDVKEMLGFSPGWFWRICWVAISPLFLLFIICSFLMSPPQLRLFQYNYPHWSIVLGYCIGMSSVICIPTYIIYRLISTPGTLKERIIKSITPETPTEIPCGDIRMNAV
T3 sequence (Q63380 1-617): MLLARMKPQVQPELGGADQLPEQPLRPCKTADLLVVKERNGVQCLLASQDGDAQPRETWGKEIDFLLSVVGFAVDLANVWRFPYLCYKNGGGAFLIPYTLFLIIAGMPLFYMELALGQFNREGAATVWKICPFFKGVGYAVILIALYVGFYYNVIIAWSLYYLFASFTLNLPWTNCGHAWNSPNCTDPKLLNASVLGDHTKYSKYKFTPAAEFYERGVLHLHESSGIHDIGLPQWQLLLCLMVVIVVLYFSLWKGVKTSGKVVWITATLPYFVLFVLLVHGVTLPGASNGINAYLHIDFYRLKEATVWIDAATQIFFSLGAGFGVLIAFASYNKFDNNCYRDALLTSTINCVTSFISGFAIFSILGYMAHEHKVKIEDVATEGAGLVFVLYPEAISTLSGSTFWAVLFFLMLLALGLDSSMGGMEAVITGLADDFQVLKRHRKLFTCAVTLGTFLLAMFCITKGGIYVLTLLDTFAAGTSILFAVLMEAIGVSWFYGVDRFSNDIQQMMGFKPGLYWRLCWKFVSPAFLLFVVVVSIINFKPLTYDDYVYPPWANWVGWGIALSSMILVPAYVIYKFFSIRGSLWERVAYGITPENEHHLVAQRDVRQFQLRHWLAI

For the compound `CCC(=O)C1C(c2ccc3ccccc3c2)CC2CCC1N2C` (stereo not shown) [2-naphthyl derivative], the “transporter selectivity (in words)” value in experiment [1] is recorded as “unselective”.
One may read the Ki as a dissociation constant, usually derived from enzyme kinetics or from competition with a known ligand. A low value points to higher affinity. As a reminder, the IC50 is the midpoint of a concentration-inhibition curve. For the compound `C=C(C)c1ccc([C@H]2C[C@@H]3CC[C@H]([C@H]2C(=O)CC)N3C)cc1` (relative stereo) [Example 1], in experiment [2], the Ki was 0.82 ± 0.38 nM, the 5-HT/DA potency ratio is reported as 8.8 and the 5-HT/NE potency ratio amounted to 970. The compound further registered an IC50 in experiment [3] of 7.2 ± 2.1 nM. For the same compound, in experiment [4], the Ki came to 794 ± 110 nM.
The matching figures for `C/C=C/c1ccc([C@H]2C[C@@H]3CC[C@H]([C@H]2C(=O)CC)N3C)cc1` [Example 9, (R)-(E )-8-Methyl-2β-propanoyl-3β-[4-(1-propenyl)phenyl]-8-azabicyclo[3.2.1]octane]: 1.17 ± 0.46 nM, 1.5, 250, 1.59 ± 0.66 nM and 292 ± 71.7 nM.
The matching figures for `CCC(=O)[C@H]1[C@@H](c2ccc(/C=C(/C)I)cc2)C[C@@H]2CC[C@H]1N2` (relative stereo) [Example 13, (Z)-2β-Pr opanoyl-3β-[4-(2-iodopropenyl)phenyl]-8-azabicyclo[3.2.1]octane]: 0.131 ± 0.03 nM, 507, 509, 66.5 ± 11.1 nM and 66.7 ± 17.1 nM.
For `CCC(=O)[C@H]1[C@@H](c2ccc(C=C(C)C)cc2)C[C@@H]2CC[C@H]1N2` (relative stereo) [Example 6, 2.beta .-Propanoyl-3β-[4-(2-methylpropenyl)phenyl]-8-azabicyclo[3.2.1]octanem] the same measures were 0.404 ± 0.1 nM, 240, 3097, 96.3 ± 17.1 nM and 1250 ± 124 nM.
Regarding `CCC(=O)[C@H]1[C@@H](c2ccc(C=C(C)C)cc2)C[C@@H]2CC[C@H]1N2C` (relative stereo) [Example 5, 8-Methyl-2β-Propanoyl-3β-[4-(2-methylpropenyl)phenyl]-8-azabicyclo[3.2.1]octane], the Ki in experiment [2] (setting [5]) is 9.22 ± 2.4 nM; in experiment [4] it was 4130 ± 785 nM. Besides, the 5-HT/DA potency ratio in experiment [2] is 6. Moreover, the 5-HT/NE potency ratio in experiment [2] was found to be 448. Besides, the IC50 in experiment [3] amounted to 51.3 ± 15.5 nM.
Take `CCC(=O)[C@H]1[C@@H](c2ccc(-c3cccn3C)cc2)C[C@@H]2CC[C@H]1N2` (relative stereo) [Example 4, 2.beta .-Propanoyl-3β-[4-(N-methyl-2-pyrrolyl)phenyl]-8-azabicyclo[3.2.1]octane]: the Ki in experiment [2] (setting [5]) is 1.05 ± 0.2 nM; in experiment [4] it was more than 10000 nM. In experiment [2], the 5-HT/DA potency ratio turned out to be 590. For the same compound, the 5-HT/NE potency ratio in experiment [2] is > 25,000. The same compound showed an IC50 in experiment [3] of 614 ± 98 nM.
`CCC(=O)[C@H]1[C@@H](c2ccc(/C=C(\C)I)cc2)C[C@@H]2CC[C@H]1N2` (relative stereo) [Example 12, (E)-2β-Propanoyl-3. beta.-[4-(2-iodopropenyl)phenyl]-8-azabicyclo[3.2.1]octane]: in experiment [2], the Ki was 0.566 ± 0.027 nM, the 5-HT/DA potency ratio was determined as 708 and the 5-HT/NE potency ratio amounted to 645. Besides, in experiment [3], the 50% inhibitory concentration (IC50) came out at 401 ± 73 nM. The same compound had a Ki in experiment [4] of 365 ± 118 nM.
For `CC=Cc1ccc(C2CC3CCC(N3)C2C(=O)CC)cc1` [Example 10, (R)-(E )-2β-Propanoyl-3β-[4-(1-propenyl)phenyl]-8-azabicyclo[3.2.1]octane] the same measures were 0.236 nM, 8, 108, 1.94 ± 0.96 nM and 25.6 ± 9.6 nM.
For `C=C(CC)c1ccc([C@H]2C[C@@H]3CC[C@H]([C@H]2C(=O)CC)N3C)cc1` [Example 7, (R)-8-Methyl-2β-propanoyl-3β-[4-(1-ethylethenyl)phenyl]-8-azabicyclo[3.2.1]octanem] the same measures were 1.13 ± 0.3 nM, 20, 1000, 22.1 ± 7.76 nM and 1140 ± 606 nM.
The matching figures for `CCC(=O)[C@H]1[C@@H](c2ccc(/C=C/I)cc2)C[C@@H]2CC[C@H]1N2` (relative stereo) [Example 11, (E)-2β-Propanoyl-3β-[4-(2-iodoethenyl)phenyl]-8-azab icyclo[3.2.1]octane]: 0.619 ± 0.078 nM, 83, 80, 51.3 ± 5.6 nM and 49.7 ± 10.6 nM.
With `CCC(=O)[C@H]1[C@@H](c2ccc(-c3cccn3C)cc2)C[C@@H]2CC[C@H]1N2C` (relative stereo) [Example 3, 8-Methyl-2β-propanoyl-3β-[4-(N-methyl-2-pyrrolyl)phenyl]-8-azabicyclo[3,2,1]octane], affinity in experiment [2] (setting [5]) was put at a Ki of 25.6 ± 4.1 nM. In experiment [2], the 5-HT/DA potency ratio was 24 and the 5-HT/NE potency ratio is on record as > 15,000. In addition, the IC50 in experiment [3] is 703 ± 222 nM. The compound also returned a Ki in experiment [4] of more than 10000 nM.
Consider `C=C(CC)c1ccc(C2CC3CCC(N3)C2C(=O)CC)cc1` [Example 8, (R)-2. beta.-Propanoyl-3β-[4-(1-ethylethenyl)phenyl]-8-azabicyclo[3.2.1]octane], for which, in experiment [2], the Ki was determined as 0.194 ± 0.1 nM, the 5-HT/DA potency ratio stood at 200 and the 5-HT/NE potency ratio came to 1790. Further, in experiment [3], the half-maximal inhibitory concentration (IC50) worked out at 37.9 ± 12.9 nM. In experiment [4], this compound came in with a Ki of 347 ± 54.8 nM.
The matching figures for `C=C(C)c1ccc([C@H]2C[C@@H]3CC[C@@H](N3)[C@H]2C(=O)CC)cc1` (relative stereo) [Example 2]: 0.11 ± 0.02 nM, 150, 850, 16 ± 4.9 nM and 94 ± 18 nM.
Turning to `C=C(C)c1ccc(C2CC3CCC(N3)C2C(=O)CC)cc1` (stereo not shown) [4-(1-methylethenyl)phenyl derivative], the “transporter selectivity (in words)” value in experiment [1] is listed as “most selective compound described in the previous case”.
